According to patent US11931429B2, “Chemiluminescent probes for diagnostics and in vivo imaging” (RAMOT AT TEL-AVIV UNIVERSITY LTD., priority 2016, dated 2024):
“Also recorded” adds a separate entry of the source.

How the values were obtained:
β-galactosidase [1] = details: Probe 1, known standard (Edwards et al., 1994); cited from earlier work
[2] = Light-induced decomposition under normal room illumination, monitored by RP-HPLC; format: physicochemical; details: PBS pH 7.4, normal room illumination
Method: Probes (300 μM) were incubated in PBS (100 mM), pH 7.4, at ambient temperature.
Light-induced decomposition of dioxetane-dye conjugates. While working on the synthesis of the dioxetane-fluorophore conjugates, we encountered an unexpected phenomenon. Although Probe 1 seemed to be photostable, Probes 2 and 3 appeared to decompose under normal room illumination conditions. We measured the photostability of the probes in aqueous solution (PBS, pH 7.4) under normal room illumination. The light-induced decomposition was monitored over several hours by a RP-HPLC assay (FIG. 2).

β-galactosidase [3] = tested on: β-galactosidase
Method: Spectra were recorded in PBS (100 mM), pH 7.4, in the presence of 1.5 units/mL β-galactosidase (continuous lines). Dotted line is the fluorescence emission spectrum (DCL—direct chemiluminescence).
Fluorescence and chemiluminescence were recorded on Molecular Devices Spectramax i3x.
Chemiluminescence parameters measured for Probes 1, 2 and 3 and their ability to detect and image β-galactosidase. Next, we measured the light emission of the probes, as a function of time, in the presence and in the absence of β-galactosidase.
The chemiluminescence quantum yield (ϕCL) of probes 2 and 3 was calculated using that of Probe 1 as a known standard (Edwards et al., 1994).

[4] = Chemiluminescence detection of hydrogen peroxide by Probe 10; format: biochemical
Method: (§1) On the left—a comparison between light emission observed by Probe 10 (1 mM; left vial) to that observed by Luminol (1 mM; right vial) upon incubation with hydrogen peroxide under aqueous conditions at pH 10. Probe 12 is a chemiluminescence for detection of GSH.
(§2) FIGS. 15A-15B show (15A) total light emitted from Probe 10 (100 μM), Probe 11 (10 μM) and Probe 12 (10 μM) in the presence of hydrogen peroxide (1 mM), alkaline phosphatase (AP) (1.5 EU/ml) or glutathione (1 mM). Measurements were conducted in PBS (100 mM), pH 7.4, with 10% DMSO at RT; and (15B) total light emitted from Probe 10 (500 μM), Probe 11 (500 μM) and Probe 12 (10 μM) in PBS (100 mM), pH 7.4 with 10% DMSO over a period of 1 h, with various concentration of the corresponding stimulus. A detection limit (blank control+3 SD) was determined for each probe.
(§3) The activation of our chemiluminescence probes is based on removal of a protecting group from the phenolic moiety. Therefore, different phenol-protecting groups could be incorporated as triggering substrates for various analytes/enzymes (Redy-Keisar et al., 2014). […] Probe 10 was equipped with boronic-ester as a substrate for hydrogen peroxide, Probe 11 with phosphate group as a substrate for alkaline-phosphatase and Probe 12 with dinitro-benzene-sulfonyl group as a substrate for GSH (FIG. 14). The probes were prepared with an acrylic acid or methyl acrylate substituent at the ortho position of the phenolic oxygen. […] As described above, the probes decompose upon their activation to release the excited state of the coresponed benzoate. The acrylate substituent efficiently increases the emissive nature of the released benzoate to produce strong light emission, clearly visible to the naked eye.
(§4) To evaluate the sensitively and selectivity of Probes 10, 11 and 12 to detect their corresponded analyte/enzyme, we determined the probes' limit of detection (LOD). […] Probe 10 could detect hydrogen peroxide with an LOD value of 30 nM, Probe 11 could detect alkaline-phosphatase with an LOD value of 3.9 μU/ml and Probe 12 could detect GSH with an LOD value of 1.7 μM.

Aqueous solubility = format: physicochemical
[5] = tested on: alkaline phosphatase (AP); assay: Chemiluminescence detection of alkaline phosphatase by Probe 11; format: biochemical
Method: as §1
as §2, with “[…];” for “Measurements were conducted in PBS (100 mM), pH 7.4, with 10% DMSO at RT;”
as §3, §4

HEK293-LacZ stable cells = assay: Chemiluminescence microscopy imaging of β-galactosidase activity in HEK293-LacZ cells; format: cell-based; details: 5 μM, 20 min incubation, 60× objective, seconds exposure (Study 2)
Method: (§5) Images were obtained following 20 min incubation with cell culture medium containing Probe 3 (5 μM).
(§6) Images were obtained following 20 min incubation with cell culture medium containing Probe 7 (5 μM). Images were taken by the LV200 Olympus-microscope using 60× objective and 40s exposure time.
(§7) Chemiluminescence microscopy imaging of β-galactosidase activity. Chemiluminescence images were acquired using Olympus LV200 inverted microscope fitted with an EMCCD camera (Hamamatsu C9100-13). HEK293 LacZ stable cells (amsbio SC003) and HEK293-WT cells (control) were grown on 35 mm glass bottom petri dishes at 37° C. for 24 h. Cell culture medium was changed to Molecular Probes® Live Cell Imaging Solution containing 5 μM of Probe 3. Cells were incubated for another 20 minutes at 37° C. Thereafter, images were recorded with 20 minutes exposure time.
To improve the image quality, the HEK293-LacZ cells were fixed by using 4% formaldehyde and permeabilized with 0.1% Triton X-100. The cells were then incubated with Probe 3 and imaged by the microscope using a 60× objective (NA 1.42).
Chemiluminescence images were acquired using Olympus LV200 inverted microscope fitted with an EMCCD camera (Hamamatsu C9100-13). […] Thereafter, images were recorded with 40 seconds exposure time.

HEK293-WT cells = assay: Chemiluminescence microscopy imaging, HEK293-WT control cells; format: cell-based; details: 5 μM, 20 min incubation (Study 2)
Method: as §5, §6, §7
as §7, with “Chemiluminescence” for “Chemiluminescence microscopy imaging of β-galactosidase activity. Chemiluminescence”, “of probe 4.” for “of Probe 3.”, “with 40 seconds” for “with 20 minutes”

[6] = Chemiluminescence detection of glutathione by Probe 12; format: biochemical
Method: as §2
The activation of our chemiluminescence probes is based on removal of a protecting group from the phenolic moiety. Therefore, different phenol-protecting groups could be incorporated as triggering substrates for various analytes/enzymes (Redy-Keisar et al., 2014). […] Probe 10 was equipped with boronic-ester as a substrate for hydrogen peroxide, Probe 11 with phosphate group as a substrate for alkaline-phosphatase and Probe 12 with dinitro-benzene-sulfonyl group as a substrate for GSH (FIG. 14). The probes were prepared with an acrylic acid or methyl acrylate substituent at the ortho position of the phenolic oxygen. […]
To evaluate the sensitively and selectivity of Probes 10, 11 and 12 to detect their corresponded analyte/enzyme, we determined the probes' limit of detection (LOD). […]

[7] = Chemiluminescence of adamantylidene-dioxetane luminophores 5b-9b in PBS 7.4; format: physicochemical
[8] = reference compound, known value (Trofimov et al., 1996; Edwards et al., 1994); cited from earlier work
[9] = 500 μM probe, PBS (100 mM) pH 7.4, 10% DMSO, 1 h, blank control+3 SD

COC1(c2cccc(O[C@@H]3OC(CO)[C@H](O)[C@H](O)C3O)c2Cl)OOC12C1CC3CC(C1)CC2C3 (stereo partly shown) [Probe 1, reference compound]
ΦCL (chemiluminescence quantum yield) (β-galactosidase [1]): 3.3 × 10^−5 | photostability under normal room illumination [2]: photostable; also recorded: unaffected by light | λmax [nm] (chemiluminescence emission) (β-galactosidase [3]; 1 μM, PBS (100 mM) pH 7.4, 1.5 units/mL β-galactosidase): 470 nm | Relative ΦCL (β-galactosidase [3]; relative to Probe 1): 1

COC1(c2ccc(/C=C/C(=O)O)c(B3OC(C)(C)C(C)(C)O3)c2)OOC12C1CC3CC(C1)CC2C3 (stereo not shown) [Probe 10]
LOD for hydrogen peroxide [4, 9]: 30 nM | luminescence upon reaction with analyte ([4]; 1 mM, pH 10): bright green luminescence | selectivity towards analyte of choice ([4]; vs alkaline phosphatase and glutathione, physiological conditions): very good selectivity | aqueous solubility (Aqueous solubility): increased significantly

COC1(c2ccc(/C=C/C(=O)O)c(OP(=O)(O)O)c2)OOC12C1CC3CC(C1)CC2C3 (stereo not shown) [Probe 11]
LOD for alkaline-phosphatase [5, 9]: 3.9 μU/ml | luminescence upon reaction with enzyme ([5]; 1 mM, pH 10): bright green luminescence | selectivity towards analyte of choice ([5]; vs hydrogen peroxide and glutathione, physiological conditions): very good selectivity | aqueous solubility (Aqueous solubility): increased significantly

COC(=O)/C=C/c1ccc(C2(OC)OOC23C2CC4CC(C2)CC3C4)c(Cl)c1OCc1ccc(O[C@@H]2OC(CO)[C@H](O)C(O)C2O)cc1 (stereo partly shown) [Probe 7]
chemiluminescence images of HEK293-LacZ cells (HEK293-LacZ stable cells): high quality chemiluminescence images; also recorded: excellent chemiluminescence cell images | chemiluminescence signal of HEK293-WT cells (HEK293-WT cells): No chemiluminescence signal at all was observed

COC(=O)/C=C/c1ccc(C2(OC)OOC23C2CC4CC(C2)CC3C4)cc1OCc1ccc(NS(=O)(=O)c2ccc([N+](=O)[O-])cc2[N+](=O)[O-])cc1 (stereo not shown) [Probe 12]
LOD for GSH ([6]; 10 μM probe, PBS (100 mM) pH 7.4, 10% DMSO, 1 h, blank control+3 SD): 1.7 µM | selectivity towards analyte of choice ([6]; vs hydrogen peroxide and alkaline phosphatase, physiological conditions): very good selectivity | aqueous solubility (Aqueous solubility): relatively moderate aqueous solubility | applicable concentration range (Aqueous solubility; aqueous): 1 to 10 µM

COC1(c2cccc(O)c2Cl)OOC12C1CC3CC(C1)CC2C3 (stereo not shown) [Phenol 5b, reference compound]
λ maxCL [nm] ([7]; PBS 7.4): 470 nm | Relative CL emission ([7]; relative to 5b): 1 | chemiluminescence emission signal upon deprotonation ([7]; water / PBS 7.4): extremely weak | ΦCL(H20) % [8]: 3.2×10^−3%
